Source: patent US9884854B2, “N-[(pyrimidinylamino)propanyl]-and N[(pyrazinylamino)proppanyl]arylcarboxamides” (Boehringer Ingelheim International GmbH, priority 2016, dated 2018)

System: not listed separately
Assay: Assay C: metabolic stability in human liver microsomes (Human MST)
Assay type: in vitro ADME
Conditions: pooled human liver microsomes, pH 7.6, 1 μM compound, 37° C., read-out: Human MST t1/2
Text: Stability in human liver microsomes refers to the susceptibility of compounds to biotransformation in the context of selecting and/or designing drugs with favorable pharmacokinetic properties. The primary site of metabolism for many drugs is the liver. Human liver microsomes contain the cytochrome P450s (CYPs), and thus represent a model system for studying drug metabolization in vitro. Enhanced stability in human liver microsomes is associated with several advantages, including increased bioavailability and longer half-life, which can enable lower and less frequent dosing of patients. Thus, enhanced stability in human liver microsomes is a favorable characteristic for compounds that are to be used for drugs.
C. Assessment of Metabolic Stability in Human Liver Microsomes (Human MST)
The metabolic stability of the compounds according to the invention may be investigated as follows:
The metabolic degradation of the test compound is assayed at 37° C. with pooled human liver microsomes. The final incubation volume of 100 μL per time point contains TRIS buffer pH 7.6 at room temperature (0.1 M), MgCl2 (5 mM), microsomal protein (1 mg/mL) and the test compound at a final concentration of 1 μM. Following a short pre-incubation period at 37° C., the reactions are initiated by addition of beta-nicotinamide adenine dinucleotide phosphate, reduced form (NADPH, 1 mM), and terminated by transferring an aliquot into solvent after different time points. After centrifugation (10000 g, 5 min), an aliquot of the supernatant is assayed by LC-MS/MS for the amount of parent compound. The half-life (t1/2) is determined by the slope of the semi-logarithmic plot of the concentration-time profile.

Row | Structure (SMILES) | half-life at 1 μM [h]
1 | CCN(C(=O)c1ccccc1-n1nccn1)[C@@H](C)CNc1ncc(C(F)(F)F)cn1 [Example 1] | 2
2 | CCN(C(=O)c1nc(C)ccc1-n1nccn1)[C@@H](C)CNc1ncc(C(F)(F)F)cn1 [Example 9] | 1.67
3 | CCN(C(=O)c1cnc(C)nc1-c1ccccc1)[C@@H](C)CNc1ncc(C(F)(F)F)cn1 [Example 17] | > 2
4 | CCN(C(=O)c1cccc(F)c1-n1nccn1)[C@@H](C)CNc1ncc(C(F)(F)F)cn1 [Example 18] | > 2

Biological target: T1, human orexin 2 receptor (Homo sapiens, UniProt O43614)
T1 construct: stably expressing the full-length human orexin 2 receptor and the aequorin photoprotein; expressed in transfected cells; host or cells: CHO-K1 (CHO-K1/hOx2), co-expressing aequorin
T1 sequence (O43614 1-444): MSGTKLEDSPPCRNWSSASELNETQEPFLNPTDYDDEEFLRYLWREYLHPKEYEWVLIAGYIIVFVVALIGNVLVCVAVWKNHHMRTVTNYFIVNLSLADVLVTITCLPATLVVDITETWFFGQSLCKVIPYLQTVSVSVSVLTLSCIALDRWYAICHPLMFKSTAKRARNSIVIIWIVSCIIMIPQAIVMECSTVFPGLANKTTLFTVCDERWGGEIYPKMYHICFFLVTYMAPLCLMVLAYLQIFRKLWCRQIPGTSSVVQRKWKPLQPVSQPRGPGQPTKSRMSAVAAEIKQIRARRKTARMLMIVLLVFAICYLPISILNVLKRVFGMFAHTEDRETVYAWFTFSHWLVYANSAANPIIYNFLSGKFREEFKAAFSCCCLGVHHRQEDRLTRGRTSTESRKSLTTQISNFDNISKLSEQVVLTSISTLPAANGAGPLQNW
Assay: Assay B: OX2R IP1 (in vitro OX2R potency)
Assay type: cell-based
Conditions: 0.5 nM Orexin A concentration
Text: Activation of the orexin receptors expressed in cell lines results in an increase in intracellular IP3 concentration. IP1, a downstream metabolite of IP3, accumulates in cells following receptor activation and is stable in the presence of LiCl. Using Homogeneous Time-Resolved Fluorescence technology with Lumi4-Tb cryptate (commercially available from Cisbio Bioassay.) and a suitable fluorescence plate reader. […] Chem. Genomics 2009, 3, 22-32. This technique is used to characterize pharmacological modification of the orexin receptors.
B. In Vitro Testing of OX2R Potency: OX2R IP1
IP1 measurements are performed in CHO-K1 cells stably expressing the full-length human orexin 2 receptor and the aequorin photoprotein. Cells are cultivated in Ham's nutrient mixture F12 medium with 10% fetal calf serum, in a 37° C., 95% humidity and 5% CO2 incubator. The CHO-K1/hOx2 cell mass is expanded to larger cell numbers. The cells are obtained as frozen cells in cryo-vials and stored until use at −150° C. The viability of the cells after thawing is >90%. In preparation for the assay, 24 hours before the assay, the cells are thawed at 37° C. and immediately diluted with cell culture medium. After centrifugation, the cell pellet is resuspended in medium and then distributed into the assay plates with a density of 5000 cells/25 μL per well. The plates are incubated for one hour at room temperature to reduce edge effects before they are incubated for 24 hours at 37° C./5% CO2. Compounds are prepared by a 8-point serial dilution in DMSO and a final dilution step into assay buffer (HBSS with 20 mM HEPES, 0.1% BSA and 50 mM LiCl, pH 7.4) to ensure a final DMSO concentration of 1% in the assay. On the day of the assay, cells in the plate are washed twice with 60 μL assay buffer (20 μL buffer remained in the wells after washing), followed by adding 5 μL per well of compounds diluted in assay buffer. After 15 minutes of incubation at room temperature 5 μL per well of Orexin A peptide (final concentration: 0.5 nM) dissolved in assay buffer is added to the assay plate. The assay plate is incubated for 60 minutes at 37° C. Then 5 μl per well of Anti-IP1-Cryptate Tb solution and 5 μl per well of IP1-d2 dilution are added to all well of the plate and the plate is incubated for a further 60 minutes light protected at room temperature. The emission at 615 nm and 665 nm (Excitation wavelength: 320 nm) are measured using an EnVision reader (PerkinElmer). The ratio between the emission at 665 nm and 615 is calculated by the reader.
8-point four parametric non-linear curve fitting and determination of IC50 values and Hill slopes is performed using a regular analysis software e.g. AssayExplorer (Accelrys). In order to establish an agonist concentration independent parameter, Kb values are calculated using the following equation: IC50/((2+(A/EC50)n)^1/n−1) (with A=concentration agonist, EC50=EC50 agonist, n=Hill slope agonist) (see P. Leff, I. G. Dougall, Trends Pharmacol. Sci. 1993, 14(4), 110-112).
Kb values from Assay A (OX1R) and Assay B (OX2R) can then provide a selectivity ratio which is independent of the agonist (Orexin A) concentration.

Row | Structure (SMILES) | Kb [nM]
5 | CCN(C(=O)c1ccccc1-n1nccn1)[C@@H](C)CNc1ncc(C(F)(F)F)cn1 [Example 1] | 19.4
6 | CCN(C(=O)c1nc(C)ccc1-n1nccn1)[C@@H](C)CNc1ncc(C(F)(F)F)cn1 [Example 9] | 32.9
7 | CCN(C(=O)c1cnc(C)nc1-c1ccccc1)[C@@H](C)CNc1ncc(C(F)(F)F)cn1 [Example 17] | 54
8 | CCN(C(=O)c1cccc(F)c1-n1nccn1)[C@@H](C)CNc1ncc(C(F)(F)F)cn1 [Example 18] | 18
